Measurements as given in patent US20100099561A1, “HETEROBICYCLIC ALKYLTHIO-BRIDGED ISOXAZOLINES” (E.I. DU PONT DE NEMOURS AND COMPANY, priority 2008, published 2010).

How the values were obtained:
Assay type in all cases: in vivo
[1] = tested on: large crabgrass (Digitaria sanguinalis); assay: Test A postemergence, large crabgrass; conditions: 0 to 100 scale (0 no effect, 100 complete control)
Procedure, shortened: (§1)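 Seeds planted in loam–sand blend; compounds in non-phytotoxic solvent with surfactant applied as directed preemergence soil spray, or postemergence to plants 2–10 cm tall at one- to two-leaf stage. After ~10 days in greenhouse, injury rated visually versus untreated controls on 0–100 scale (100 = complete control).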

[2] = tested on: large crabgrass (Digitaria sanguinalis); assay: Test A preemergence, large crabgrass; conditions: 0 to 100 scale (0 no effect, 100 complete control)
Procedure, shortened: as §1

[3] = tested on: barnyardgrass (Echinochloa crus-galli); assay: Test A postemergence, barnyardgrass; conditions: 0 to 100 scale (0 no effect, 100 complete control)
Procedure, shortened: as §1

[4] = tested on: morningglory (Ipomoea spp.); assay: Test A postemergence, morningglory; conditions: 0 to 100 scale (0 no effect, 100 complete control)
Procedure, shortened: as §1

[5] = tested on: corn (Zea mays); assay: Test A postemergence, corn; conditions: 0 to 100 scale (0 no effect, 100 complete control)
Procedure, shortened: as §1

[6] = tested on: pigweed (Amaranthus retroflexus); assay: Test A postemergence, pigweed; conditions: 0 to 100 scale (0 no effect, 100 complete control)
Procedure, shortened: as §1

[7] = tested on: giant foxtail (Setaria faberi); assay: Test A preemergence, giant foxtail; conditions: 0 to 100 scale (0 no effect, 100 complete control)
Procedure, shortened: as §1

[8] = tested on: barnyardgrass (Echinochloa crus-galli); assay: Test A preemergence, barnyardgrass; conditions: 0 to 100 scale (0 no effect, 100 complete control)
Procedure, shortened: as §1

[9] = tested on: wheat (Triticum aestivum); assay: Test A preemergence, wheat; conditions: 0 to 100 scale (0 no effect, 100 complete control)
Procedure, shortened: as §1

[10] = tested on: velvetleaf (Abutilon theophrasti); assay: Test A preemergence, velvetleaf; conditions: 0 to 100 scale (0 no effect, 100 complete control)
Procedure, shortened: as §1

[11] = tested on: corn (Zea mays); assay: Test A preemergence, corn; conditions: 0 to 100 scale (0 no effect, 100 complete control)
Procedure, shortened: as §1

[12] = tested on: umbrella sedge (Cyperus difformis); assay: Test B flooded paddy test, umbrella sedge; conditions: Flood, scale 0 to 100
Procedure, shortened: (§2)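 Compounds were added directly to paddy water over 2-leaf-stage plants in pots flooded 3 cm above soil, water depth maintained. Visual injury scored against controls after 13 to 15 days in greenhouse, 0 (none) to 100 (complete control); dash indicates no result.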

[13] = tested on: rice (Oryza sativa); assay: Test B flooded paddy test, rice; conditions: Flood, scale 0 to 100
Procedure, shortened: as §2

[14] = tested on: ducksalad (Heteranthera limosa); assay: Test B flooded paddy test, ducksalad; conditions: Flood, scale 0 to 100
Procedure, shortened: as §2

[15] = tested on: velvetleaf (Abutilon theophrasti); assay: Test A postemergence, velvetleaf; conditions: 0 to 100 scale (0 no effect, 100 complete control)
Procedure, shortened: as §1

[16] = tested on: giant foxtail (Setaria faberi); assay: Test A postemergence, giant foxtail; conditions: 0 to 100 scale (0 no effect, 100 complete control)
Procedure, shortened: as §1

[17] = tested on: barnyardgrass (Echinochloa crus-galli); assay: Test B flooded paddy test, barnyardgrass; conditions: Flood
Procedure, shortened: as §2

[18] = tested on: wheat (Triticum aestivum); assay: Test A postemergence, wheat; conditions: 0 to 100 scale (0 no effect, 100 complete control)
Procedure, shortened: as §1

[19] = tested on: pigweed (Amaranthus retroflexus); assay: Test A preemergence, pigweed; conditions: 0 to 100 scale (0 no effect, 100 complete control)
Procedure, shortened: as §1

[20] = tested on: morningglory (Ipomoea spp.); assay: Test A preemergence, morningglory; conditions: 0 to 100 scale (0 no effect, 100 complete control)
Procedure, shortened: as §1

[21] = 250 g ai/ha, scale 0 to 100 (0 no effect, 100 complete control)

CC1(C)CC([S+]([O-])Cc2c(C(F)(F)F)nc3cccnn3c2=O)=NO1 (stereo not drawn) [Compound 46]
Plant response rating, Crabgrass, Large ([1]; 125 g ai/ha): 0 | Plant response rating, Crabgrass, Large ([1]; 500 g ai/ha): 0 | Plant response rating, Crabgrass, Large ([2]; 125 g ai/ha): 0 | Plant response rating, Crabgrass, Large ([2]; 500 g ai/ha): 0 | Plant response rating, Barnyardgrass ([3]; 125 g ai/ha): 0 | Plant response rating, Barnyardgrass ([3]; 500 g ai/ha): 0 | Plant response rating, Morningglory ([4]; 125 g ai/ha): 0 | Plant response rating, Morningglory ([4]; 500 g ai/ha): 0 | Plant response rating, Corn ([5]; 125 g ai/ha): 0 | Plant response rating, Corn ([5]; 500 g ai/ha): 0 | Plant response rating, Pigweed ([6]; 125 g ai/ha): 0 | Plant response rating, Pigweed ([6]; 500 g ai/ha): 0 | Plant response rating, Foxtail, Giant ([7]; 125 g ai/ha): 0 | Plant response rating, Foxtail, Giant ([7]; 500 g ai/ha): 0 | Plant response rating, Barnyardgrass ([8]; 125 g ai/ha): 0 | Plant response rating, Barnyardgrass ([8]; 500 g ai/ha): 0 | Plant response rating, Wheat ([9]; 125 g ai/ha): 0 | Plant response rating, Wheat ([9]; 500 g ai/ha): 0 | Plant response rating, Velvetleaf ([10]; 125 g ai/ha): 0 | Plant response rating, Velvetleaf ([10]; 500 g ai/ha): 20 | Plant response rating, Corn ([11]; 125 g ai/ha): 0 | Plant response rating, Corn ([11]; 500 g ai/ha): 0 | Plant response rating, Sedge, Umbrella ([12]; 31 g ai/ha): 0 | Plant response rating, Sedge, Umbrella ([12]; 62 g ai/ha): 0 | Plant response rating, Sedge, Umbrella ([12]; 125 g ai/ha): 0 | Plant response rating, Sedge, Umbrella ([12]; 250 g ai/ha): 0 | Plant response rating, Rice ([13]; 31 g ai/ha): 0 | Plant response rating, Rice ([13]; 62 g ai/ha): 0 | Plant response rating, Rice ([13]; 125 g ai/ha): 0 | Plant response rating, Rice ([13]; 250 g ai/ha): 0 | Plant response rating, Ducksalad ([14]; 31 g ai/ha): 0 | Plant response rating, Ducksalad ([14]; 62 g ai/ha): 0 | Plant response rating, Ducksalad ([14]; 125 g ai/ha): 0 | Plant response rating, Ducksalad ([14]; 250 g ai/ha): 0 | Plant response rating, Velvetleaf ([15]; 125 g ai/ha): 0 | Plant response rating, Velvetleaf ([15]; 500 g ai/ha): 0 | Plant response rating, Foxtail, Giant ([16]; 125 g ai/ha): 0 | Plant response rating, Foxtail, Giant ([16]; 500 g ai/ha): 0 | Plant response rating, Barnyardgrass ([17]; 31 g ai/ha, scale 0 to 100): 0 | Plant response rating, Barnyardgrass ([17]; 62 g ai/ha, scale 0 to 100): 0 | Plant response rating, Barnyardgrass ([17]; 125 g ai/ha, scale 0 to 100): 0 | Plant response rating, Barnyardgrass [17, 21]: 0 | Plant response rating, Wheat ([18]; 125 g ai/ha): 0 | Plant response rating, Wheat ([18]; 500 g ai/ha): 0 | Plant response rating, Pigweed ([19]; 125 g ai/ha): 0 | Plant response rating, Pigweed ([19]; 500 g ai/ha): 0 | Plant response rating, Morningglory ([20]; 125 g ai/ha): 0 | Plant response rating, Morningglory ([20]; 500 g ai/ha): 0

Cn1c(=O)c(CS(=O)(=O)C2=NOC(C)(C)C2)nc2ccccc21 [Compound 23]
Plant response rating, Crabgrass, Large ([1]; 125 g ai/ha): 30 | Plant response rating, Crabgrass, Large ([1]; 500 g ai/ha): 60 | Plant response rating, Crabgrass, Large ([2]; 125 g ai/ha): 10 | Plant response rating, Crabgrass, Large ([2]; 500 g ai/ha): 70 | Plant response rating, Barnyardgrass ([3]; 125 g ai/ha): 40 | Plant response rating, Barnyardgrass ([3]; 500 g ai/ha): 60 | Plant response rating, Morningglory ([4]; 125 g ai/ha): 0 | Plant response rating, Morningglory ([4]; 500 g ai/ha): 0 | Plant response rating, Corn ([5]; 125 g ai/ha): 0 | Plant response rating, Corn ([5]; 500 g ai/ha): 0 | Plant response rating, Pigweed ([6]; 125 g ai/ha): 0 | Plant response rating, Pigweed ([6]; 500 g ai/ha): 0 | Plant response rating, Foxtail, Giant ([7]; 125 g ai/ha): 30 | Plant response rating, Foxtail, Giant ([7]; 500 g ai/ha): 80 | Plant response rating, Barnyardgrass ([8]; 125 g ai/ha): 20 | Plant response rating, Barnyardgrass ([8]; 500 g ai/ha): 40 | Plant response rating, Wheat ([9]; 125 g ai/ha): 0 | Plant response rating, Wheat ([9]; 500 g ai/ha): 0 | Plant response rating, Velvetleaf ([10]; 125 g ai/ha): 0 | Plant response rating, Velvetleaf ([10]; 500 g ai/ha): 0 | Plant response rating, Corn ([11]; 125 g ai/ha): 0 | Plant response rating, Corn ([11]; 500 g ai/ha): 0 | Plant response rating, Sedge, Umbrella ([12]; 62 g ai/ha): 0 | Plant response rating, Sedge, Umbrella ([12]; 250 g ai/ha): 0 | Plant response rating, Rice ([13]; 62 g ai/ha): 0 | Plant response rating, Rice ([13]; 250 g ai/ha): 0 | Plant response rating, Ducksalad ([14]; 62 g ai/ha): 0 | Plant response rating, Ducksalad ([14]; 250 g ai/ha): 0 | Plant response rating, Velvetleaf ([15]; 125 g ai/ha): 0 | Plant response rating, Velvetleaf ([15]; 500 g ai/ha): 0 | Plant response rating, Foxtail, Giant ([16]; 125 g ai/ha): 10 | Plant response rating, Foxtail, Giant ([16]; 500 g ai/ha): 60 | Plant response rating, Barnyardgrass ([17]; 62 g ai/ha, scale 0 to 100): 0 | Plant response rating, Barnyardgrass [17, 21]: 0 | Plant response rating, Wheat ([18]; 125 g ai/ha): 0 | Plant response rating, Wheat ([18]; 500 g ai/ha): 0 | Plant response rating, Pigweed ([19]; 125 g ai/ha): 0 | Plant response rating, Pigweed ([19]; 500 g ai/ha): 10 | Plant response rating, Morningglory ([20]; 125 g ai/ha): 0
